Data taken from patent publication US10144732B2 (BIOGEN MA INC., priority 2014, dated 2018).
Values joined by “and” are separate entries in the source; they are usually repeats but may differ in a detail not shown here. Equal entries are not always repeated. Structures can show the parent of a compound that is named as a salt.

Each compound was assayed against T1, Human ATX protein (Homo sapiens, UniProt Q13822) (assay: ATX biochemical assay (FRET, FS-3 substrate)). Conditions: FRET assay, FS-3 2 μM, ATX 1.0 μg/mL, 30 minutes preincubation, 2 hours reaction at room temperature; read-out: IC50.
T1 construct: made in house
Excerpt: ATX (Autotaxin) is a 125 KDa glycoprotein with lysophospholipase D (LPLD) activity that generates the bioactive lipid lysophosphatidic acid (LPA) from lysophosphatidylcholine (LPC). The ATX biochemical assay utilizes a FRET (fluorescence resonance energy transfer) technology platform. The fluorescence signal of FRET substrate FS-3 is quenched due to intra-molecular FRET of a fluorophore to a non-fluorescing quencher (Ferguson, C. G., et al., Org Lett. 2006 May 11; 8(10): 2023-2026, which is incorporated by reference in its entirety). ATX catalyzes the hydrolysis of the substrate which separates the dabsyl quencher from the fluorescein reporter, which becomes fluorescent. The reaction is monitored by a SpectraMax M5 (Molecular Devices, Sunnyvale, Calif.) with at excitation wavelength 485 nm and emission wavelength […].
Fatty acid free-BSA (Sigma A8806): 10 mg/mL in H2O, stored at 4° C.
2×ATX assay buffer: 100 mM Tris, 280 mM NaCl, 10 mM KCl, 2 mM CaCl2, 2 mM MgCl2, pH 7.4.
Human ATX protein: expressed and purified in house. Stored at −80° C.
Substrate FS-3 (Echelon, L-2000): 100 μg in 77.74 μL H2O (1 mM stock), stored at −20° C.
384-well flat bottom plates—Corning #3575.
Compound dilution—All compounds were provided at 10 mM in 100% DMSO. In the first well, 2 μL of 10 mM compound was added to 78 μL of DMSO (1:40 dilution). In subsequent wells 3-fold dilution (total 10 dilutions) were performed.
1×ATX assay buffer was made up with a final concentration of 1 mg/mL fatty acid free-BSA using 2×ATX assay buffer, 10 mg/ml fatty acid free-BSA and ddH2O.
[…]. The final concentration of ATX in the reaction as 1.0 μg/mL.
2 μL per well of compounds was transferred to provide the desired concentration. The plate was centrifuged, then incubated at room temperature for 30 minutes on the shaker.
FS-3 was diluted with 1×ATX assay buffer to a concentration of FS-3 of 10 μM (5×). Then, 10 μL was added per well to the assay plate. The final concentration of FS-3 in the reaction was 2 μM. The plate was centrifuged. The plate was kept shaking at room temperature for 2 hours. Because FS-3 substrate is light sensitive, plates were kept covered and protected from light.
Fluorescence was measured using SpectraMax M5 (excitation at 485 nm/emission at 538 nm, top read).
An IC50 of no more than 100 nM was found for COC(=O)C1CCN(CC(=O)N2CCc3c(C(F)(F)F)nn(Cc4ccc(F)cc4)c3C2)C1 (centres unmarked) [Example 12-7, Methyl 1-(2-(1-(4-fluorobenzyl)-3-(trifluoromethyl)-4,5-dihydro-1H-pyrazolo[3,4-c]pyridin-6(7H)-yl)-2-oxoethyl)pyrrolidine-3-carboxylate] in this work. An IC50 of no more than 100 nM was found for O=C(O)C1CC2CN(CC(=O)N3CCc4c(C(F)(F)F)nn(Cc5ccc(F)cc5)c4C3)CC2C1 (centres unmarked) [Example 13-10, 2-(2-(1-(4-Fluorobenzyl)-3-(trifluoromethyl)-4,5-dihydro-1H-pyrazolo[3,4-c]pyridin-6(7H)-yl)-2-oxoethyl)octahydrocyclopenta[c]pyrrole-5-carboxylic acid TFA salt] in this work. An IC50 of no more than 100 nM was found for CCOC(=O)[C@H]1CC[C@H](CC(=O)N2CCc3c(C(F)(F)F)nn(CC4CCC(C)CC4)c3C2)CC1 (stereo partly drawn) [Example 1-48, trans-Ethyl 4-(2-(1-((4-methylcyclohexyl)methyl)-3-(trifluoromethyl)-4,5-dihydro-1H-pyrazolo[3,4-c]pyridin-6(7H)-yl)-2-oxoethyl) cyclohexanecarboxylate] in this work. An IC50 of no more than 100 nM was found for O=C(C[C@H]1CC[C@@H](C(=O)O)CC1)N1CCc2c(C(F)(F)F)nn(Cc3ccc(F)cc3)c2C1 [Example 7-2, cis-4-(2-(1-(4-fluorobenzyl)-3-(trifluoromethyl)-4,5-dihydro-1H-pyrazolo[3,4-c]pyridin-6(7H)-yl)-2-oxoethyl)cyclohexanecarboxylic acid] in this work. For CCOC(=O)c1nn(Cc2ccc(F)cc2)c2c1CCN(C(=O)C[C@H]1CC[C@H](C(=O)OCC)CC1)C2 [Example 1-40, Ethyl 6-(2-(trans-4-(ethoxycarbonyl)cyclohexyl)acetyl)-1-(4-fluorobenzyl)-4,5,6,7-tetrahydro-1H-pyrazolo[3,4-c]pyridine-3-carboxylate], the IC50 was > 500 nM and ≤ 10000 nM. An IC50 of no more than 100 nM was found for CCOC(=O)C1CCC(CC(=O)N2CCc3c(C(F)(F)F)nn(Cc4ccccc4)c3C2)CC1 (centres unmarked) [Example 1-13, Ethyl 4-(2-(1-benzyl-3-(trifluoromethyl)-4,5-dihydro-1H-pyrazolo[3,4-c]pyridin-6(7H)-yl)-2-oxoethyl)cyclohexanecarboxylate] in this work. An IC50 of no more than 100 nM was found for O=C(CN[C@H]1C[C@H](C(=O)O)C1)N1CCc2c(C(F)(F)F)nn(Cc3ccc(F)cc3)c2C1 [Example 13-29, trans-3-(2-(1-(4-Fluorobenzyl)-3-(trifluoromethyl)-4,5-dihydro-1H-pyrazolo[3,4-c]pyridin-6(7H)-yl)-2-oxoethylamino)cyclobutanecarboxylic acid TFA salt] in this work. An IC50 of no more than 100 nM was found for CC(C)N1CCC(CC(=O)N2CCc3c(C(F)(F)F)nn(Cc4ccc(F)cc4)c3C2)C1 (centres unmarked) [Example 10-6, 1-(1-(4-Fluorobenzyl)-3-(trifluoromethyl)-4,5-dihydro-1H-pyrazolo[3,4-c]pyridin-6(7H)-yl)-2-(1-isopropylpyrrolidin-3-yl)ethanone] in this work. An IC50 of no more than 100 nM was found for CCCC1CC(CC(=O)N2CCc3c(C(F)(F)F)nn(Cc4ccc(F)cc4)c3C2)CCN1C(=O)OC(C)(C)C (centres unmarked) [Example 8-9, tert-Butyl 4-(2-(1-(4-fluorobenzyl)-3-(trifluoromethyl)-4,5-dihydro-1H-pyrazolo[3,4-c]pyridin-6(7H)-yl)-2-oxoethyl)-2-propylpiperidine-1-carboxylate] in this work. An IC50 of no more than 100 nM was found for O=C(CN1CCCCC1)N1CCc2c(C(F)(F)F)nn(Cc3ccc(Cl)cc3F)c2C1 [Example 12-2, 1-(1-(4-Chloro-2-fluorobenzyl)-3-(trifluoromethyl)-4,5-dihydro-1H-pyrazolo[3,4-c]pyridin-6(7H)-yl)-2-(piperidin-1-yl)ethanone] in this work. An IC50 of no more than 100 nM was found for O=C(O)CN1CCC(CC(=O)N2CCc3c(C(F)(F)F)nn(Cc4ccc(Cl)cc4F)c3C2)CC1 [Example 15-1, 2-(4-(2-(1-(4-Chloro-2-fluorobenzyl)-3-(trifluoromethyl)-4,5-dihydro-1H-pyrazolo[3,4-c]pyridin-6(7H)-yl)-2-oxoethyl)piperidin-1-yl)acetic acid] in this work. An IC50 of no more than 100 nM was found for O=C(O)[C@H]1CC[C@H](C(=O)N2CCc3c(C(F)(F)F)nn(Cc4ccc(F)cc4)c3C2)CC1 [Example 7-17, trans-4-(1-(4-Fluorobenzyl)-3-(trifluoromethyl)-4,5,6,7-tetrahydro-1H-pyrazolo[3,4-c]pyridine-6-carbonyl)cyclohexanecarboxylic acid] in this work. An IC50 of no more than 100 nM was found for CCOC(=O)C1CCCN(CC(=O)N2CCc3c(C(F)(F)F)nn(Cc4ccc(F)cc4)c3C2)C1 (centres unmarked) [Example 12-5, Ethyl 1-(2-(1-(4-fluorobenzyl)-3-(trifluoromethyl)-4,5-dihydro-1H-pyrazolo[3,4-c]pyridin-6(7H)-yl)-2-oxoethyl)piperidine-3-carboxylate] in this work. An IC50 of no more than 100 nM was found for O=C(O)CCCCC(=O)N1CCc2c(C(F)(F)F)nn(Cc3ccc(Cl)cc3F)c2C1 [Example 14-1, 6-(1-(4-Chloro-2-fluorobenzyl)-3-(trifluoromethyl)-4,5-dihydro-1H-pyrazolo[3,4-c]pyridin-6(7H)-yl)-6-oxohexanoic acid] in this work. An IC50 of no more than 100 nM was found for O=C(O)C12CCC(C(=O)N3CCc4c(C(F)(F)F)nn(Cc5ccc(F)cc5)c4C3)(CC1)CC2 [Example 5-11, 4-(1-(4-Fluorobenzyl)-3-(trifluoromethyl)-4,5,6,7-tetrahydro-1H-pyrazolo[3,4-c]pyridine-6-carbonyl)bicyclo[2.2.2]octane-1-carboxylic acid] in this work. An IC50 of no more than 100 nM was found for CCOC(=O)C1CCC(CC(=O)N2CCc3c(C(F)(F)F)nn(Cc4ccc(Cl)cc4Cl)c3C2)CC1 (centres unmarked) [Example 1-9, Ethyl 4-(2-(1-(2,4-dichlorobenzyl)-3-(trifluoromethyl)-4,5-dihydro-1H-pyrazolo[3,4-c]pyridin-6(7H)-yl)-2-oxoethyl)cyclohexanecarboxylate] in this work. An IC50 of no more than 100 nM was found for CC(C)N1CC(CC(=O)N2CCc3c(C(F)(F)F)nn(Cc4ccc(Cl)cc4F)c3C2)C[C@H]1C(=O)O (stereo partly drawn) [Example 10-12, (2S)-4-(2-(1-(4-Chloro-2-fluorobenzyl)-3-(trifluoromethyl)-4,5-dihydro-1H-pyrazolo[3,4-c]pyridin-6(7H)-yl)-2-oxoethyl)-1-isopropylpyrrolidine-2-carboxylic acid TFA salt] in this work. An IC50 of no more than 100 nM was found for O=C(O)C1CC2(C1)CN(CC(=O)N1CCc3c(C(F)(F)F)nn(Cc4ccc(Cl)cc4F)c3C1)C2 [Example 13-21, 2-(2-(1-(4-Chloro-2-fluorobenzyl)-3-(trifluoromethyl)-4,5-dihydro-1H-pyrazolo[3,4-c]pyridin-6(7H)-yl)-2-oxoethyl)-2-azaspiro[3.3]heptane-6-carboxylic acid TFA salt] in this work. An IC50 of no more than 100 nM was found for COC(=O)[C@H]1CC[C@@H](NC(=O)N2CCc3c(C(F)(F)F)nn(Cc4ccc(Cl)cc4F)c3C2)CC1 [Example 3-1, cis-Methyl 4-(1-(4-chloro-2-fluorobenzyl)-3-(trifluoromethyl)-4,5,6,7-tetrahydro-1H-pyrazolo[3,4-c]pyridine-6-carboxamido)cyclohexanecarboxylate] in this work. An IC50 of no more than 100 nM was found for O=C(C[C@H]1CC[C@H](C(=O)O)CC1)N1CCc2c(C(F)(F)F)nn(Cc3ccc(F)cc3)c2C1 [Example 7-1, trans-4-(2-(1-(4-Fluorobenzyl)-3-(trifluoromethyl)-4,5-dihydro-1H-pyrazolo[3,4-c]pyridin-6(7H)-yl)-2-oxoethyl)cyclohexanecarboxylic acid] in this work. An IC50 of no more than 100 nM was found for O=C(O)C1CCCN(CC(=O)N2CCc3c(C(F)(F)F)nn(Cc4ccc(Cl)cc4F)c3C2)C1 (centres unmarked) [Example 13-3, 1-(2-(1-(4-Chloro-2-fluorobenzyl)-3-(trifluoromethyl)-4,5-dihydro-1H-pyrazolo[3,4-c]pyridin-6(7H)-yl)-2-oxoethyl)piperidine-3-carboxylic acid] in this work. An IC50 of no more than 100 nM was found for N#CC1CCN(CC(=O)N2CCc3c(C(F)(F)F)nn(Cc4ccc(F)cc4)c3C2)CC1 [Example 12-10, 1-(2-(1-(4-Fluorobenzyl)-3-(trifluoromethyl)-4,5-dihydro-1H-pyrazolo[3,4-c]pyridin-6(7H)-yl)-2-oxoethyl)piperidine-4-carbonitrile TFA salt] in this work. An IC50 of no more than 100 nM was found for O=C(CC12CCC(C(=O)O)(CC1)CC2)N1CCc2c(C(F)(F)F)nn(Cc3ccc(Cl)cc3F)c2C1 [Example 5-12, 4-(2-(1-(4-Chloro-2-fluorobenzyl)-3-(trifluoromethyl)-4,5-dihydro-1H-pyrazolo[3,4-c]pyridin-6(7H)-yl)-2-oxoethyl)bicyclo[2.2.2]octane-1-carboxylic acid] in this work.
